Data on three compounds can be found in patent US20090221715A1, “NOVEL POLYMORPH OF ATOVAQUONE” (priority 2008, published 2009).

The data set is described as follows: Bulk density and tapped density comparison of atovaquone crystalline forms. The data set is classed as physicochemical. Conditions: powder of the crystalline form.

SMILES strings stand for the structures.

Consider `O=C1C(O)=C([C@H]2CC[C@H](c3ccc(Cl)cc3)CC2)C(=O)c2ccccc21` [Form I (ATO-8094P), trans-2-[4-(4-chlorophenyl)cyclohexyl]-3-hydroxy-1,4-naphthoquinone], for which the Bulk density worked out at 0.4802 g/mL and the Tapped density is 0.6402 g/mL.

The compound `O=C1C(O)=C([C@H]2CC[C@H](c3ccc(Cl)cc3)CC2)C(=O)c2ccccc21` [Form III (ATO-8110), trans-2-[4-(4-chlorophenyl)cyclohexyl]-3-hydroxy-1,4-naphthoquinone] showed a Bulk density of 0.2975 g/mL and a Tapped density of 0.4010 g/mL.

`O=C1C(O)=C([C@H]2CC[C@H](c3ccc(Cl)cc3)CC2)C(=O)c2ccccc21` [Form IPCA-ATO (ATO-8099), trans-2-[4-(4-chlorophenyl)cyclohexyl]-3-hydroxy-1,4-naphthoquinone]: the Bulk density was 0.2353 g/mL and the Tapped density is 0.3801 g/mL.
